Reference: patent US20100179103A1 (priority 2008, published 2010)

Assays:
[1] = in vivo; cited from earlier work
[2] = tested on: carrageenan paw inflammation; assay: mouse carrageenan paw inflammation (paw edema) model; format: in vivo; conditions: 3 hours; p.o. gavage; curcumin 30 mg/kg, CDC 30 mg/kg, indomethacin 5 mg/kg; male CD-1 mice

Compound	Tmax [1]	swelling (edema: left paw thickness minus right paw thickness) [2]
COc1cc(/C=C/C(=O)CC(=O)/C=C/c2ccc(O)c(OC)c2)ccc1O [curcumin, Curcumin]	3 to 5 min	0.66 mm
COc1ccc2c(c1)c(CC(=O)O)c(C)n2C(=O)c1ccc(Cl)cc1 [indomethacin, Indomethacin]	–	0.73 mm
